Measurements reported in patent publication US8865672B2, “Prevention of tissue ischemia and related methods” (The United States of America, as represented by the …, priority 2006, dated 2014).
Blank lines part the entries; values can stand above or below the compound they belong to. Peptide text beside a SMILES is read from it. * marks the point of attachment. Biotin = O=C1N[C@H]2[C@H](CS[C@H]2CCCCC(=O)*)N1

How the values were obtained:
[1] = system: murine WT and TSP1-null platelets; test: cGMP in murine platelets; format: cell-based, mouse; conditions: 100 μM added to Tyrode's
Experimental: After induction of general anesthesia with isoflurane 2%, age and sex matched C57BL/6 WT and TSP1-null mice underwent cardiac puncture. Blood was aspirated into 1 cc syringes with a 25 gauge needle containing 100 μl heparin (Heparin Lock Flush, Abbott, Chicago, Ill.), mixed with 100 μl 3% ACD and centrifuged in 1.2 ml S-Monovette separation tubes (Sarstedt, Germany). PRP was aspirated off, centrifuged, and the resulting platelet pellet was resuspended in 200 μl of Tyrode's buffer.
Fresh human platelets at 2×10^5 platelets/μl in Tyrode's buffer or PRP were pre-incubated with the indicated agents for 15 minutes and then challenged with DEA/NO for the indicated time interval at room temperature and total cGMP determined via immunoassay (Amersham, GE Healthcare, Buckinghamshire, UK). Murine WT and TSP1-null platelets were treated with DEA/NO and cGMP flux measured.

NO/cGMP signaling = test: cGMP signaling (NO-stimulated cGMP, immunoassay); format: cell-based, human; conditions: concentration for 50% inhibition of effect
Experimental: (§1) Vascular cells (endothelial) or HT-1080 cells (10^4 cells/well) grown overnight in 12-well culture in SM-GM containing 2% FCS or RPMI+10% FCS respectively and then weaned off serum over 48 h before treatment with NO donors and other agents in serum/additive free medium+0.1% BSA. Intracellular cGMP levels were determined using an enzyme immunoassay (Amersham, GE Health Care, UK). In other experiments fresh washed human platelets were incubated in Tyrode's buffer and the indicated treatment agents±NO and cGMP determined.

human platelets = test: Thrombin-induced human platelet aggregation; format: cell-based; conditions: low shear, peptide 1 μM, 10 μM DEA/NO
Method in brief: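 Washed human platelets in Tyrode's buffer pH 7.4 (2×10^5/μl) are stirred at 1200 rpm and 37 °C, and optical aggregation is followed for 5 min; under static conditions, A400 is tracked for 5 min instead. TSP1 agents or 1 μM peptide C6d are pre-incubated for 15 min before thrombin ± DEA/NO (10 μM).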

[2] = system: VSMC and endothelial cells; test: NO-stimulated adhesion of VSMC and endothelial cells to type I collagen (Example 9); format: cell-based; conditions: 10 μM DEA/NO
Experimental: Vascular cells (VSMC or endothelial) were plated at 10,000 cells/well onto 96-well plates (Maxisorb, Nunc) precoated with type I collagen (3 μg/ml). […] Plates were then washed with PBS, fixed with glutaraldehyde, stained with crystal violet, and washed. Absorbed stain was solubilized with acetic acid from fixed cells and the resulting color signal determined on a MR580Microelisa Auto Reader, (Dynatech, Alexandria, Va.) at 450 nm wavelength.

[3] = system: endothelial cells and platelets; test: NO-stimulated cGMP flux in endothelial cells and platelets (Example 9); format: cell-based, human; conditions: 10 μM DEA/NO
Experimental: as §1
Endothelial cells (FIG. 62C) and platelets (FIG. 62D) in basal medium without serum or Tyrode's buffer respectively were treated with the indicated peptides±NO (10 μM DEA/NO) and cGMP levels determined.

HUVEC = test: Intracellular cGMP in HUVEC; format: cell-based, human; conditions: DEA/NO 10 μM
Experimental: HUVEC (10^4 cells/well) grown overnight in 96-well culture plates containing full growth medium with 2% FCS and weaned in growth medium without additives and 1% FCS over 24 hrs before treatment with NO donors and other agents in SM-GM without additives+0.1% BSA. Intracellular cGMP levels were determined according to the manufacturer's instructions using an enzyme immunoassay kit (Amersham Biosciences). In other experiments ASMC from wild type and CD36 or CD47 null mice were plated onto 96-well culture plates and incubated overnight in full growth medium. They were then weaned off serum as described to SM-GM+0.1% BSA and treated with NO donor and other agents as indicated. Intracellular cyclic nucleotides were determined via immunoassay.

HASMC [4] = test: NO-stimulated HASMC adhesion on type I collagen; format: cell-based, human; conditions: DEA/NO 10 μM
Experimental: Cell adhesion was carried out in 96-well culture plates. After pre-coating wells with type I collagen (3 μg/ml in DPBS) harvested cells were plated at a density of 1×10^4 cells/well in medium plus 0.1% BSA and treatment agents and incubated in 5% CO2 for 1 h. Wells were washed with PBS and cells fixed with 1% glutaraldehyde for 10 min., washed and stained with 1% crystal violet for 20 min. Excess stain was rinsed away, adherent cells treated with 10% acetic acid, and plates read at 570 nm.

HASMC [5] = test: Intracellular cGMP in HASMC; format: cell-based, human; conditions: DEA/NO 10 μM, 5 minutes
[6] = target: T1, CD47 IgV domain / SIRP IgV domain (Homo sapiens, UniProt Q08722); test: ELISA of SIRP IgV domain binding to CD47 IgV domain; conditions: Fc-SIRP IgV on protein A plates, alkaline phosphatase-CD47 IgV
T1 construct: alkaline phosphatase fusions of the CD47 IgV domain
Text: SIRP-alpha (Signal Inhibitory Regulatory Protein Alpha; SIRPα) and the closely related SIRP-gamma (SIRPγ formerly called SIRP-beta) are two ligands of CD47. They consist of an N-terminal IgV set domain and variable numbers of 1 g domains followed by a transmembrane segment and variously spliced cytoplasmic tails, some of which contain phosphorylatable tyrosines that constitute docking sites for tyrosine phosphatases such as SHP-1 and SHP-2. The IgV domain of SIRP-alpha and -gamma are high affinity ligands of CD47 with species specificity thought to allow self vs. non-self discrimination by phagocytes. The binding of the IgV domain of SIRPα to the IgV domain of CD47 can be measured in a simple ELISA assay using recombinant versions of each protein. For this purpose we have employed Fc-fusions of SIRP IgV domain and alkaline phosphatase fusions of the CD47 IgV domain. The Fc-IgV protein is adsorbed to well plates coated with protein A to which the Fc binds. Potential inhibitors are added and the binding of alkaline phosphatase-conjugated CD47 IgV domain is measured by routine procedures.

[7] = system: murine WT and TSP1-null platelets; test: Thrombin-induced murine platelet aggregation; format: cell-based, mouse; conditions: high shear
Experimental: Aggregation of human platelets under high shear conditions was assessed using a standard optical aggregometer (Lumi-Dual Aggregometer, Chrono-Log Corp., Havertown, Pa.) at 37° C. and 1200 rpm in a volume of 500 μl buffer with a final platelet concentration of 2×10^5 platelets/μl over a 5 minute interval. Pre-incubation with TSP1 and TSP1-based agents was for 15 minutes prior to addition of thrombin and/or the rapidly releasing nitric oxide donor DEA/NO. In some experiments platelets were pre-incubated with the Rap1 inhibitor GGTI-298 (10 μM) (Calbiochem, La Jolla, Calif.) for 30 minutes prior to initiating aggregation. In other high shear aggregation experiments murine platelets were prepared as above with the following modifications. Mouse blood was collected by retro-orbital bleeding of anesthetized mice using heparinized tubes. PRP was prepared and then diluted with 4 vol. of Tyrodes containing 5 mM EDTA to prevent activation. After collection by centrifugation, platelets were resuspended in 2× initial PRP volume and held at room temperature for less than 1 hour before use. […] Platelet aggregation under static conditions was assessed using a spectrophotometer (Beckman DU 640, Beckman Coulter, Fullerton, Calif.) and determined as a change in absorbance at 400 nm with continuous observation over a five minute interval. […]

Rap1 = Rap1 pulldown assay in platelets; format: cell-based, human; conditions: thrombin
Experimental: Platelets were diluted to 5×10^8 platelets/mL in Tyrode's buffer and treated with various reagents for the indicated times. Immediately following treatment, platelets were pelleted at 13,000 g for 30 seconds at 4° C. and resuspended in ice-cold lysis buffer containing 20 mM HEPES (pH 7.5), 100 mM NaCl, 10 mM EGTA, 20 mM MgCl2, 8 mM α-glycerophosphate, 1% Triton X-100, 1 mM phenylmethylsulfonylfluoride, 40 mM NaF, 1 mM Na3VO4, 10 μg/mL aprotinin, and 10 μg/mL leupeptin. Lysates were centrifuged at 13,000 g for 5 minutes at 4° C. and the supernatants were incubated for 15 minutes on a tumbler at 4° C. with glutathione Sepharose 4B beads (Amersham) prebound with a GST-Ral GDS RBD fusion protein (kind gift of J. Silvio Gutkind, NIH, Bethesda, Md.). Bead complexes were washed by centrifugation at 6,000 g for 30 seconds at 4° C. followed by resuspension in 0.5 mL lysis buffer; 2 washes were performed for each sample. After the second wash, beads were resuspended in an equal volume of 2×SDS sample buffer and stored at −20° C. For Western analysis, bead-bound proteins in sample buffer were boiled for 10 minutes and subjected to electrophoresis on NuPAGE 10% Bis-Tris gels (Invitrogen, Carlsbad, Calif.), transferred to Immobilon-P PVDF membranes (Millipore, Billerica, Mass.), and blotted with rabbit polyclonal anti-Rapt (sc-65; Santa Cruz Biotechnology, Santa Cruz, Calif.).

VASP = test: Phospho-Ser239 VASP Western blotting in platelets; format: cell-based, human; conditions: 8Br-cGMP 100 μM, TSP1 2.2 nM
Experimental: Washed human platelets (resuspended in Tyrode's buffer to 3×10^8 platelets/mL to a final volume of 0.5 mL) were incubated at 37° C. for 30 minutes before treatment. TSP1 was added 15 minutes prior to treatment. Immediately following treatment, platelets were pelleted at 13,000×g at 4° C. for 15 seconds and resuspended in 1 mL of a lysis buffer containing 10 mM Tris-HCl (pH 7.5), 150 mM NaCl, 1 mM EDTA, 1 mM Na3VO4, 40 mM NaF, 1 μg/mL aprotinin, 1 μg/mL leupeptin, 1 mM phenylmethysulfonylfluoride and 1% […]. This suspension was placed at 4° C. with gentle agitation for 5 minutes before centrifugation at 13000×g for 5 minutes at 4° C. 5 μg lysates were electrophoresed on 4-12% Bis-Tris NuPAGE gels, transferred to Immobilon PVDF membranes and probed with a rabbit polyclonal antiserum against Serine 239-phosphorylated VASP (Santa Cruz Biotechnology, Santa Cruz, Calif.).

T1 sequence (Q08722 19-127 limits assumed): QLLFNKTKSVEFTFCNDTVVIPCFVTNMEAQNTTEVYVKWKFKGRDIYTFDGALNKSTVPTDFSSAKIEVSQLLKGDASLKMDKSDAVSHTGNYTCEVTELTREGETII

Compound: N=C(N)NCCC[C@H](N)C(=O)O [L-arginine, reference compound]
platelet cGMP levels [1]: elevated cGMP levels in TSP1-null but not in WT platelets

Compound: E3CaG1: recombinant C-terminal regions of TSP1
NO-driven cGMP production (HUVEC): potently inhibited
concentration that inhibited NO-driven HASMC adhesion to collagen (HASMC [4]): > 0.4 nM
NO-stimulated cGMP levels in HASMC (HASMC [5]): equipotent dose-dependent inhibitors

Compound: CC[C@H](C)[C@H](N)C(=O)NCC(=O)N[C@@H](Cc1c[nH]c2ccccc12)C(=O)N[C@@H](CCCCN)C(=O)N[C@@H](CC(=O)O)C(=O)N[C@@H](Cc1ccc(O)cc1)C(=O)N[C@H](C(=O)N[C@@H](C)C(=O)N[C@@H](Cc1ccc(O)cc1)C(=O)N[C@@H](CCCNC(=N)N)C(=O)O)[C@@H](C)O [compound 37298, IGWKDYTAYR] (H-IGWKDYTAYR-OH)
IC50 (NO/cGMP signaling): ~100 nM
inhibition of binding of the SIRP IgV domain to CD47 [6]: can inhibit the binding

Compound: Nc1nc2c(nc(Br)n2[C@@H]2O[C@@H]3COP(=O)(O)O[C@H]3[C@H]2O)c(=O)[nH]1 [8Br-cGMP, 8-Bromo cyclic guanine monophosphate, reference compound]
thrombin-induced aggregation ([7]; TSP1-null platelets): rendered TSP1-null platelets resistant to thrombin-induced aggregation
thrombin-induced aggregation ([7]; WT murine platelets): substantially inhibited aggregation of WT murine platelets
Rap1 activation (GTP loading) (Rap1): inhibited this activation
VASP phosphorylation at Ser239 (VASP): stimulates VASP phosphorylation at Ser239

More lines, main results first:

IC50 (NO/cGMP signaling): ~100 nM
Compound: CC[C@H](C)[C@H](NC(=O)CCCC[C@@H]1SC[C@@H]2NC(=O)N[C@@H]21)C(=O)NCC(=O)N[C@@H](Cc1c[nH]c2ccccc12)C(=O)N[C@@H](CCCCN)C(=O)N[C@@H](CC(=O)O)C(=O)N[C@@H](Cc1ccccc1)C(=O)N[C@H](C(=O)N[C@@H](C)C(=O)N[C@@H](Cc1ccc(O)cc1)C(=O)N[C@@H](CCCNC(=N)N)C(=O)O)[C@@H](C)O [C6d, biotin-IGWKDFTAYR] (Biotin-IGWKDFTAYR-OH)
NO delay of thrombin-stimulated aggregation (human platelets): completely reversed
NO-stimulated adhesion to type I collagen [2]: blocked in a dose-dependent manner
NO-stimulated cGMP flux [3]: Blocked

IC50 (NO/cGMP signaling): ~100 nM
Compound: CC[C@H](C)[C@H](NC(=O)[C@@H](N)Cc1c[nH]cn1)C(=O)NCC(=O)N[C@@H](Cc1c[nH]c2ccccc12)C(=O)N[C@@H](CCCCN)C(=O)N[C@@H](CC(=O)O)C(=O)N[C@@H](Cc1ccccc1)C(=O)N[C@H](C(=O)N[C@@H](C)C(=O)N[C@@H](Cc1ccc(O)cc1)C(=O)N[C@@H](CCCNC(=N)N)C(=O)N[C@@H](Cc1c[nH]c2ccccc12)C(=O)N[C@@H](CCCNC(=N)N)C(=O)N[C@@H](CC(C)C)C(=O)N[C@@H](CO)C(=O)O)[C@@H](C)O [C6b, HIGWKDFTAYRWRLS] (H-HIGWKDFTAYRWRLS-OH)
NO-stimulated adhesion to type I collagen [2]: blocked in a dose-dependent manner
NO-stimulated cGMP flux [3]: Blocked
